Paper PMC4051630, “A Comparison of Protein Kinases Inhibitor Screening Methods Using Both Enzymatic Activity and Binding Affinity Determination” (PLoS ONE, 2014)

How the values were obtained:
Experiment in all cases: Differential Scanning Fluorimetry (DSF) Tm shift
Assay type in all cases: binding
FES Catalytic Domain = biological target: T1, FES Catalytic Domain (Homo sapiens, UniProt P07332); conditions: 2 µM protein, 10 µM inhibitor, average of 3 experiments, each in duplicate
T1 construct: For all of them, we expressed and purified the catalytic domain separately; His-tag; made in house; host or cells: Escherichia coli

FAK2 Catalytic Domain = biological target: T2, FAK2 Catalytic Domain (Homo sapiens, UniProt Q14289); conditions: 2 µM protein, 10 µM inhibitor, average of 3 experiments, each in duplicate
T2 construct: For all of them, we expressed and purified the catalytic domain separately; His-tag; made in house; host or cells: Escherichia coli

PAK7 Catalytic Domain = biological target: T3, PAK7 Catalytic Domain (Homo sapiens, UniProt Q9P286); conditions: 2 µM protein, 10 µM inhibitor, average of 3 experiments, each in duplicate
T3 construct: For all of them, we expressed and purified the catalytic domain separately; His-tag; made in house; host or cells: Escherichia coli

STK3 Catalytic Domain = biological target: T4, STK3 Catalytic Domain (Homo sapiens, UniProt Q13188); conditions: 2 µM protein, 10 µM inhibitor, average of 3 experiments, each in duplicate
T4 construct: For all of them, we expressed and purified the catalytic domain separately; His-tag; made in house; host or cells: Escherichia coli
T4 sequence (Q13188 27-278 limits assumed): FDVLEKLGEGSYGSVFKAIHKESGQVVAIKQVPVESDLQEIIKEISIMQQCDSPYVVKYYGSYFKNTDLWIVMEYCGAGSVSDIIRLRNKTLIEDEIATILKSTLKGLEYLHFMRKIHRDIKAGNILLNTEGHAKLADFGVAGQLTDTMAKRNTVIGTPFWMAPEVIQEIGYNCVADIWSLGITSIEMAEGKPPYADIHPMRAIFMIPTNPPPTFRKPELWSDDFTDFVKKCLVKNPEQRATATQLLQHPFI

SRC Catalytic Domain = SRC Catalytic Domain (Homo sapiens, UniProt P12931); design: For all of them, we expressed and purified the catalytic domain separately; His-tag; made in house; host or cells: Escherichia coli; conditions: 2 µM protein, 10 µM inhibitor, average of 3 experiments, each in duplicate
FES Catalytic Domain+SH2 = biological target: T5, FES Catalytic Domain+SH2 (Homo sapiens, UniProt P07332); conditions: 2 µM protein, 10 µM inhibitor, average of 3 experiments, each in duplicate
T5 construct: for 8, we also made a longer version containing one or more additional domains; His-tag; made in house; host or cells: Escherichia coli

CHK2 Catalytic Domain = biological target: T6, CHK2 Catalytic Domain (Homo sapiens, UniProt O96017); conditions: 2 µM protein, 10 µM inhibitor, average of 3 experiments, each in duplicate
T6 construct: For all of them, we expressed and purified the catalytic domain separately; His-tag; made in house; host or cells: Escherichia coli

[1] = biological target: SRC Catalytic Domain+SH2+SH3 (Homo sapiens, UniProt P12931); conditions: 2 µM protein, 10 µM inhibitor, average of 3 experiments, each in duplicate
PAK4 Catalytic Domain = biological target: T7, PAK4 Catalytic Domain (Homo sapiens, UniProt O96013); conditions: 2 µM protein, 10 µM inhibitor, average of 3 experiments, each in duplicate
T7 construct: For all of them, we expressed and purified the catalytic domain separately; His-tag; made in house; host or cells: Escherichia coli

[2] = biological target: T8, STK3 Catalytic domain+SARAH (Homo sapiens, UniProt Q13188); conditions: 2 µM protein, 10 µM inhibitor, average of 3 experiments, each in duplicate
T8 construct: for 8, we also made a longer version containing one or more additional domains; His-tag; made in house; host or cells: Escherichia coli
T8 sequence (Q13188 1-491): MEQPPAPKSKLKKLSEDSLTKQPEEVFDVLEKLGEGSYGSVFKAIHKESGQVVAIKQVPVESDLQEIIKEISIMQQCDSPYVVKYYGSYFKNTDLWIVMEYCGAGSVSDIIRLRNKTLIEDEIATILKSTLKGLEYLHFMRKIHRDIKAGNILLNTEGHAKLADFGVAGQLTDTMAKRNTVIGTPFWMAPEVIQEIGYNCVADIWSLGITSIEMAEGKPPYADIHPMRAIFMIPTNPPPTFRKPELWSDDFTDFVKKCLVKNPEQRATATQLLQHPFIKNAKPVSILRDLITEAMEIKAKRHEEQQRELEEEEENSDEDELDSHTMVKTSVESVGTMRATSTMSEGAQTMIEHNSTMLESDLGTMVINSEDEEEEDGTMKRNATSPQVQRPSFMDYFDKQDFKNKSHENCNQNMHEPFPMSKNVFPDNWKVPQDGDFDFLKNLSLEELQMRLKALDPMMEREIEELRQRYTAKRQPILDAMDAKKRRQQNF

AKT3 Catalytic Domain = biological target: T9, AKT3 Catalytic Domain (Homo sapiens, UniProt Q9Y243); conditions: 2 µM protein, 10 µM inhibitor, average of 3 experiments, each in duplicate
T9 construct: AKT3 (Q9Y243); CD; His-tag; made in house; host or cells: Escherichia coli

DMPK Catalytic Domain = biological target: T10, DMPK Catalytic Domain (Homo sapiens, UniProt Q09013); conditions: 2 µM protein, 10 µM inhibitor, average of 3 experiments, each in duplicate
T10 construct: For all of them, we expressed and purified the catalytic domain separately; His-tag; made in house; host or cells: Escherichia coli
T10 sequence (Q09013 71-339 limits assumed): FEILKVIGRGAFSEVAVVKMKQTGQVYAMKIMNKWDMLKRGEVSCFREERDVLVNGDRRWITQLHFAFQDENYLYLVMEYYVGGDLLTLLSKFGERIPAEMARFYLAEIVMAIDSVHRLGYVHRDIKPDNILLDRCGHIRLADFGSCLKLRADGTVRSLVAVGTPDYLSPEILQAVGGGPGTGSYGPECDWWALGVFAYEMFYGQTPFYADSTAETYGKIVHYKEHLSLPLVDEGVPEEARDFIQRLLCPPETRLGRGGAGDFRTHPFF

CDK2 + Cyclin A = biological target: T11, CDK2 + Cyclin A (Homo sapiens, UniProt P24941); conditions: CDK2 + Cyclin A; 2 µM protein, 10 µM inhibitor; average of 3 experiments, each in duplicate
T11 construct: CDK2 (P24941); 1–299; His-tag; made in house; host or cells: Escherichia coli

[3] = biological target: T12, PAK4 Catalytic Domain+PBD (Homo sapiens, UniProt O96013); conditions: 2 µM protein, 10 µM inhibitor, average of 3 experiments, each in duplicate
T12 construct: for 8, we also made a longer version containing one or more additional domains; His-tag; made in house; host or cells: Escherichia coli

CDK2 + Cyclin E = biological target: T13, CDK2 + Cyclin E (Homo sapiens, UniProt P24941); conditions: CDK2 + Cyclin E; 2 µM protein, 10 µM inhibitor; average of 3 experiments, each in duplicate
T13 construct: CDK2 (P24941); 1–299; His-tag; made in house; host or cells: Escherichia coli

T9 sequence (Q9Y243 122-479): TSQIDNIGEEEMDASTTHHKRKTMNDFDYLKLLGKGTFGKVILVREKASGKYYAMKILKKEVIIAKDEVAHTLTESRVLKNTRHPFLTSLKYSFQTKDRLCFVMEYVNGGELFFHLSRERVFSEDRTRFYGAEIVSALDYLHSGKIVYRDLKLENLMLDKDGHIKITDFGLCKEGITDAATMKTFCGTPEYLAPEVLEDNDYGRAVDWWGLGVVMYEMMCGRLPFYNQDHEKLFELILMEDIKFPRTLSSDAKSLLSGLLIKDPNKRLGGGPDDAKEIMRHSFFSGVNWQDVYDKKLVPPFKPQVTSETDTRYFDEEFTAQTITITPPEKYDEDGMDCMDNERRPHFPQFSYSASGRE
T5 sequence (P07332 448-822 limits assumed): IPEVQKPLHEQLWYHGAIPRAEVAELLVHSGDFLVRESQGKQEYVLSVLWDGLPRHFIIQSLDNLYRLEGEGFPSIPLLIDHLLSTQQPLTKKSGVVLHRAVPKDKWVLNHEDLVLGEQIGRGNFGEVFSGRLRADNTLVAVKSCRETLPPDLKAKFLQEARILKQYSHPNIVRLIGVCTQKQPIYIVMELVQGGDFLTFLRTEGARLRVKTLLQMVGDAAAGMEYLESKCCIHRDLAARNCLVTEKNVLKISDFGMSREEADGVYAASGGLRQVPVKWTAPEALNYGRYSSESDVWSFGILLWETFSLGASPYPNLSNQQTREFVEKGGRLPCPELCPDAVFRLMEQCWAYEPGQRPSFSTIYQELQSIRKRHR
T6 sequence (O96017 220-486 limits assumed): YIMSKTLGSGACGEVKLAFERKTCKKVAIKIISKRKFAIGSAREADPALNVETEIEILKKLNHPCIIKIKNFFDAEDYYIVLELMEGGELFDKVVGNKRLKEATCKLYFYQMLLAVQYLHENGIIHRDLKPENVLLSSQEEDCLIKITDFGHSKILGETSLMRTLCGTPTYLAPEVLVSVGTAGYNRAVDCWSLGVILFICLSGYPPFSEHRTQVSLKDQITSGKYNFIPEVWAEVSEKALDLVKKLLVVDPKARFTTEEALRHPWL
T7 sequence (O96013 321-572 limits assumed): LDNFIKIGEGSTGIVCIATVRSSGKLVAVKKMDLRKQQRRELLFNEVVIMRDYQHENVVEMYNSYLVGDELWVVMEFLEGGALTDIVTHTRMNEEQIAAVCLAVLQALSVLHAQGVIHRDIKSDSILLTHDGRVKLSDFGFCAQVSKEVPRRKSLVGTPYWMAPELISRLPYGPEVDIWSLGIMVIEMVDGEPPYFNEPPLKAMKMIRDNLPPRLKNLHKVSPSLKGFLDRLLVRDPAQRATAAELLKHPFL
SRC Catalytic Domain+SH2+SH3, sequence (P12931 84-523 limits assumed): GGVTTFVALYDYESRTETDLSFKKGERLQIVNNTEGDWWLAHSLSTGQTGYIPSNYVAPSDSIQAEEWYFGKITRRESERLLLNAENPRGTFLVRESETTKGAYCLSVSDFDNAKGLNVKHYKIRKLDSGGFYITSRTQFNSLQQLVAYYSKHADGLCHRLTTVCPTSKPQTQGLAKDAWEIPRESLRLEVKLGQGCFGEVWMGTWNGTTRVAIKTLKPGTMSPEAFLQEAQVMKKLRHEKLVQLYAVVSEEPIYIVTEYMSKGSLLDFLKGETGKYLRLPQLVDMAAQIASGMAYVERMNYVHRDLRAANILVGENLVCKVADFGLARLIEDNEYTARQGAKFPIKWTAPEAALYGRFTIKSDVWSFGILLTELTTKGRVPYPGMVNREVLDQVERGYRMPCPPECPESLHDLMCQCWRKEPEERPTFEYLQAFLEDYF
T3 sequence (Q9P286 449-700 limits assumed): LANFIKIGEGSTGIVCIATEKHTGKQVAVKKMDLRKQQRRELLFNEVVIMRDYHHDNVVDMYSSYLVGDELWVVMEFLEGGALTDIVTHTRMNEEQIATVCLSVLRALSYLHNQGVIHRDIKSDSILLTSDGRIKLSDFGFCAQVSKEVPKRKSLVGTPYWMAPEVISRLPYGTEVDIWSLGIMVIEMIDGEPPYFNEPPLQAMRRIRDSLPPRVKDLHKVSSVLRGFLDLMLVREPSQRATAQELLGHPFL
SRC Catalytic Domain, sequence (P12931 270-523 limits assumed): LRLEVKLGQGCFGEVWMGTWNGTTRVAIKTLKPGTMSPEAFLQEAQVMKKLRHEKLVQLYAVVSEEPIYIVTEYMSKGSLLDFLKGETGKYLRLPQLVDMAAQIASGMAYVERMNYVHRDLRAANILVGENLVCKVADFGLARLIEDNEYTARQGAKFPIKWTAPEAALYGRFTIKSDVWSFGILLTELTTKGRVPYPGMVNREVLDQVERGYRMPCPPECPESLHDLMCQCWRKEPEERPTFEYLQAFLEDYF
T1 sequence (P07332 561-822 limits assumed): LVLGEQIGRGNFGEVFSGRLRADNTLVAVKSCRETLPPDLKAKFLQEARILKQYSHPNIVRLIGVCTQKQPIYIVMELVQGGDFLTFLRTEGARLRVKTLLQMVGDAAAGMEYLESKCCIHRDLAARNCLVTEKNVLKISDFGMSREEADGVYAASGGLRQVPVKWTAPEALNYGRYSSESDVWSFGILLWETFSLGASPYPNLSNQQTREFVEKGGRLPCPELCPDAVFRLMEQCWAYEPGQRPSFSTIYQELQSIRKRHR
T2 sequence (Q14289 425-683 limits assumed): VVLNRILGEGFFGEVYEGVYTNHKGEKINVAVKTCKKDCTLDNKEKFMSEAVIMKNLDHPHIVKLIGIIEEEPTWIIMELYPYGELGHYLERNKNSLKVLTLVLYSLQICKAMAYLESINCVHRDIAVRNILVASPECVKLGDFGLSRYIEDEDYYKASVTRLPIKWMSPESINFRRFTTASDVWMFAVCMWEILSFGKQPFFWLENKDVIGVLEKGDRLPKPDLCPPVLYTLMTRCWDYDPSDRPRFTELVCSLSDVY
T12 sequence (O96013 whole entry, the tested form may be a part): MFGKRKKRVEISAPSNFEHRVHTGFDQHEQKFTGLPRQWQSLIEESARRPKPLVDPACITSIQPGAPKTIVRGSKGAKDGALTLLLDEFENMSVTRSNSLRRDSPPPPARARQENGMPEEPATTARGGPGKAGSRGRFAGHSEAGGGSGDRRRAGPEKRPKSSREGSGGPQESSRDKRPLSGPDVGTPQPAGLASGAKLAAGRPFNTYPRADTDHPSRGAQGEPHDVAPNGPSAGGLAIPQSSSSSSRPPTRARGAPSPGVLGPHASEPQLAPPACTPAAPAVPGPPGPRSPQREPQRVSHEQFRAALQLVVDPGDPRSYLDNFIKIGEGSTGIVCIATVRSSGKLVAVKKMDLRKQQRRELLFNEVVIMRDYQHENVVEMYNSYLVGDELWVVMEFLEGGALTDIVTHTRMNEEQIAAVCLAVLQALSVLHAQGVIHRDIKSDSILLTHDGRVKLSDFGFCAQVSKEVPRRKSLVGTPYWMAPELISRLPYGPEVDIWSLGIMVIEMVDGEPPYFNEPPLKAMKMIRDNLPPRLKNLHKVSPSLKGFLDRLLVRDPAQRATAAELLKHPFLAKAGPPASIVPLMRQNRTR

Row | Structure (SMILES) | Melting temperature (Tm) shift (FES Catalytic Domain) [degrees Celcius] | Melting temperature (Tm) shift (FAK2 Catalytic Domain) [degrees Celcius] | Melting temperature (Tm) shift (PAK7 Catalytic Domain) [degrees Celcius] | Melting temperature (Tm) shift (STK3 Catalytic Domain) [degrees Celcius] | Melting temperature (Tm) shift (SRC Catalytic Domain) [degrees Celcius] | Melting temperature (Tm) shift (FES Catalytic Domain+SH2) [degrees Celcius] | Melting temperature (Tm) shift (CHK2 Catalytic Domain) [degrees Celcius] | Melting temperature (Tm) shift [1] [degrees Celcius] | Melting temperature (Tm) shift (PAK4 Catalytic Domain) [degrees Celcius] | Melting temperature (Tm) shift [2] [degrees Celcius] | Melting temperature (Tm) shift (AKT3 Catalytic Domain) [degrees Celcius] | Melting temperature (Tm) shift (DMPK Catalytic Domain) [degrees Celcius] | Melting temperature (Tm) shift (CDK2 + Cyclin A) [degrees Celcius] | Melting temperature (Tm) shift [3] [degrees Celcius] | Melting temperature (Tm) shift (CDK2 + Cyclin E) [degrees Celcius]
1 | CCCC(=O)Oc1ccc2[nH]c(C(=O)c3cc4ccccc4[nH]3)cc2c1 | 0.3 | 0.3 | 0.1 | 0.5 | 1.1 | 0.1 | 1.4 | 0.6 | 0.0 | 1.2 | – | – | – | – | –
2 | Nc1ncnc2c1c(I)cn2[C@@H]1O[C@H](CO)[C@@H](O)[C@H]1O [5-Iodotubercidin] | 1.0 | 0.4 | 0.4 | 3.0 | – | 0.0 | 0.6 | 0.1 | 0.7 | 1.5 | 0.0 | 0.2 | 2.5 | 0.7 | 1.3
3 | Cl.NCCCn1cc(C2=C(c3c[nH]c4ccccc34)C(=O)NC2=O)c2ccccc21 [Bisindolylmaleimide III, Hydrochloride] | 0.8 | 0.7 | 1.1 | 1.8 | – | 0.5 | 5.6 | 0.0 | 1.4 | 4.6 | 0.6 | 4.2 | 2.1 | 1.6 | 0.7
4 | CN1C(=O)C(=C2Nc3ccccc3C2=NO)c2ccc(Br)cc21 [GSK-3 Inhibitor IX, Control, MeBIO] | – | 0.1 | 0.0 | 0.1 | 0.0 | – | – | 0.0 | 0.0 | 0.4 | – | – | – | 0.3 | –

The remaining lines, values ahead:

Row | Melting temperature (Tm) shift (FES Catalytic Domain) [degrees Celcius] | Melting temperature (Tm) shift (FAK2 Catalytic Domain) [degrees Celcius] | Melting temperature (Tm) shift (PAK7 Catalytic Domain) [degrees Celcius] | Melting temperature (Tm) shift (STK3 Catalytic Domain) [degrees Celcius] | Melting temperature (Tm) shift (SRC Catalytic Domain) [degrees Celcius] | Melting temperature (Tm) shift (FES Catalytic Domain+SH2) [degrees Celcius] | Melting temperature (Tm) shift (CHK2 Catalytic Domain) [degrees Celcius] | Melting temperature (Tm) shift [1] [degrees Celcius] | Melting temperature (Tm) shift (PAK4 Catalytic Domain) [degrees Celcius] | Melting temperature (Tm) shift [2] [degrees Celcius] | Melting temperature (Tm) shift (AKT3 Catalytic Domain) [degrees Celcius] | Melting temperature (Tm) shift (DMPK Catalytic Domain) [degrees Celcius] | Melting temperature (Tm) shift (CDK2 + Cyclin A) [degrees Celcius] | Melting temperature (Tm) shift [3] [degrees Celcius] | Melting temperature (Tm) shift (CDK2 + Cyclin E) [degrees Celcius] | Structure (SMILES)
5 | 0.3 | 0.5 | 0.3 | 0.7 | 0.5 | 0.1 | 1.8 | 0.6 | 0.7 | 0.4 | – | 0.4 | – | 2.0 | – | Cc1nc(N)sc1-c1ccnc(Nc2cccc([N+](=O)[O-])c2)n1 [Cdk2/9 Inhibitor]
6 | 0.4 | 0.8 | 0.3 | 0.0 | – | 0.2 | 0.5 | 0.0 | 0.4 | 0.4 | 0.3 | 0.0 | 0.5 | 0.0 | 0.3 | Cl.Cl.O=S(=O)(NCCNC/C=C/c1ccc(Br)cc1)c1cccc2cnccc12 [H-89, Dihydrochloride]
7 | – | 0.4 | 0.0 | 0.2 | – | 0.0 | 0.3 | 0.1 | 0.1 | 0.3 | 0.0 | 0.8 | 0.2 | 0.1 | 0.3 | N#CC(c1ccnc(NCCc2cccnc2)n1)c1nc2ccccc2s1 (centres unmarked) [JNK Inhibitor V]
8 | 0.7 | – | 0.0 | 1.3 | 9.4 | 0.3 | 2.2 | 6.4 | – | 0.2 | – | – | – | – | – | Nc1ncnc2c1c(-c1ccc(Oc3ccccc3)cc1)cn2C1CCCC1 [Lck Inhibitor]
9 | 1.6 | 1.0 | – | 1.7 | 5.9 | 1.5 | 7.6 | 3.9 | – | 0.0 | – | – | – | – | – | COc1cc2nccc(Oc3ccc(NC(=S)NC(=O)c4ccccc4C)cc3)c2cc1OC [PDGF RTK Inhibitor]
